# According to article PMC6440977, “Nucleoside analogue activators of cyclic AMP-independent protein kinase A of Trypanosoma” (Nature Communications, 2019):
# Several values for one entry are separate records, joined by “and”; a condition that tells them apart may be missing. Identical values can stand only once. Like-named read-outs stand apart in the source and are kept apart here.
# Columns and labels:
# T. brucei PKA [1] = biological target: T1, T. brucei PKA (Trypanosoma brucei brucei, UniProt Q9GU80); settings: ref Shalaby et al. (reference 23 in manuscript); cited from earlier work
# [2] = test system: T. brucei PKA holoenzyme (Ty1-PKAC1); assay type: biochemical, Trypanosoma brucei; settings: for in vitro kinase assay [CPM], average: average of 3; for in vitro kinase assay [CPM]: independent replicates
# [3] = test system: T. brucei PKA holoenzyme (PKAR-Ty1); assay type: biochemical, Trypanosoma brucei; settings: for in vitro kinase assay [CPM], average: average of 3; for in vitro kinase assay [CPM]: independent replicates
# [4] = test system: T. brucei PKA holoenzyme (HA-PKAC2); assay type: biochemical, Trypanosoma brucei; settings: for in vitro kinase assay [CPM], average: average of 3; for in vitro kinase assay [CPM]: independent replicates
# [5] = test system: T. brucei ∆pkar/∆pkar (pkar KO) cells; assay: microbe, parasite or virus in culture; assay type: cell-based, Trypanosoma brucei; settings: for EC50: pkar KO cells
# human PKARIα = biological target: T2, human PKARIα (Homo sapiens, UniProt P10644); assay: Binding by isothermal titration calorimetry (ITC)
# T2 construct: The full length ORFs (amplified with primers introducing the respective); 6xHis followed by TEV site (N); made in house; host or cells: E. coli Rosetta D3
# T. brucei PKA [6] = biological target: T1, T. brucei PKA; assay: In vivo PKA reporter assay (VASP Ser-157 phosphorylation, western blot); assay type: cell-based;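 further: T. brucei cells expressing human VASP as heterologous PKA substrate, compound exposure at 37 °C, western blot of phospho (50 kDa) versus unphosphorylated (46 kDa) VASP band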
# T. brucei BSF cells (WT) = assay: Alamar blue cell viability assay, wild type; settings: for EC50: wild type cells;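 on all read-outs here: trypanosomes seeded at 5×10^3 per ml and grown 72 h with compound, then resazurin 0.5 mM added for 4 h as the viability read-out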
# [7] = biological target: T. brucei PKAR-PKAC1 holoenzyme (Trypanosoma brucei, UniProt Q9GU80); assay: biochemical; assay type: biochemical; settings: for In vitro kinase assay: technical replicates
# metacaspase 4 (MCA4) = assay type: cell-based, Trypanosoma brucei; settings: for MCA4 counts / MCA4 normalized / MCA4 fold change: 4 µM; for MCA4 normalized: normalized to PFR-A/C; for MCA4 fold change: untreated WT set to 1
# T. brucei PKAR(199–499) = T. brucei PKAR(199–499) (Trypanosoma brucei, UniProt Q9GU80); assay: biochemical; assay type: binding; design: Thermodynamics (ITC) -TΔS / Thermodynamics (ITC) ΔG / Thermodynamics (ITC) ΔH: unit: kcal/mol
# [8] = test system: RXXS*/T* site phosphorylation; assay: Western blot of global RXXS*/T* site phosphorylation (phospho-PKA substrate antibody); assay type: cell-based, Trypanosoma brucei; settings: wild type, 2 µM, 10 min
# PKAC1/2 = assay type: cell-based, Trypanosoma brucei; settings: 4 µM; for PKAC1/2 normalized: normalized to PFR-A/C; for PKAC1/2 fold change: untreated WT set to 1;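 on all read-outs here: trypanosoma brucei cells, PKAC1/2 signal from western blots read on an infrared fluorescence scanning system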
# [9] = biological target: T3, mammalian PKARIα2–2PKACα holoenzyme (Homo sapiens, UniProt P10644); assay: In vitro kinase assay with purified mammalian holoenzyme; assay type: biochemical, human PKARIα, mouse PKACα; settings: for In vitro kinase assay: technical replicates
# T3 construct: The full length ORFs (amplified with primers introducing the respective); made in house; host or cells: E. coli strain APE304 (adenylate cyclase-deficient)
# T3 sequence (P10644 whole entry): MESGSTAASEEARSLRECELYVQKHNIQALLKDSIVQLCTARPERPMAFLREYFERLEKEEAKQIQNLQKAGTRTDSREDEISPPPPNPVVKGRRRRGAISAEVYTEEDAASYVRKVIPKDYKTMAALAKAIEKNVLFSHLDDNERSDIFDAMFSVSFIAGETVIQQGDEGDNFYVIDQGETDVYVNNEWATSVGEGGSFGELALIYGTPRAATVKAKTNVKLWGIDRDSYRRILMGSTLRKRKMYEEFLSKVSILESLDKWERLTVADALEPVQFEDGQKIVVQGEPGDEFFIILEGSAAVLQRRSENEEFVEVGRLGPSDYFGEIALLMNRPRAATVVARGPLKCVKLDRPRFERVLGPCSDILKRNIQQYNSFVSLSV
# T. brucei PKAR(199–499), sequence (Q9GU80 entry or part of it): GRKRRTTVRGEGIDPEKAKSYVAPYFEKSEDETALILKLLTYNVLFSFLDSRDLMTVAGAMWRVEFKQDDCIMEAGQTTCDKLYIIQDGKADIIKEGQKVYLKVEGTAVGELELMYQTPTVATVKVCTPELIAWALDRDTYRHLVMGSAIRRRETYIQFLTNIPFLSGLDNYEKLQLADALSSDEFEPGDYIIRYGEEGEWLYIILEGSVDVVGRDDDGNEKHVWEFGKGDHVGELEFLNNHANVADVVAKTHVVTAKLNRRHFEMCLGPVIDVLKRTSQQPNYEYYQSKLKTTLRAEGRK
# T1 sequence (Q38DS1 entry or part of it): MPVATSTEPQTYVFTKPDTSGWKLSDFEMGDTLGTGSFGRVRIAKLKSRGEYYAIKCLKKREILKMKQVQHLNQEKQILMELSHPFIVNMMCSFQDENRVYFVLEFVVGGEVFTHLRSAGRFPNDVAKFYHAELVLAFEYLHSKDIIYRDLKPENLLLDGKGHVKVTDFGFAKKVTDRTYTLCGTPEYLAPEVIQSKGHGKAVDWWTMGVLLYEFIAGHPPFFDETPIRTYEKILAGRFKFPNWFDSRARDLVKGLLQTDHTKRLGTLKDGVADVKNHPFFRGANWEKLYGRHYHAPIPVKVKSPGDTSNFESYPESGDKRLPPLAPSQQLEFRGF
# T1 sequence (Q38DR5 entry or part of it, further chain): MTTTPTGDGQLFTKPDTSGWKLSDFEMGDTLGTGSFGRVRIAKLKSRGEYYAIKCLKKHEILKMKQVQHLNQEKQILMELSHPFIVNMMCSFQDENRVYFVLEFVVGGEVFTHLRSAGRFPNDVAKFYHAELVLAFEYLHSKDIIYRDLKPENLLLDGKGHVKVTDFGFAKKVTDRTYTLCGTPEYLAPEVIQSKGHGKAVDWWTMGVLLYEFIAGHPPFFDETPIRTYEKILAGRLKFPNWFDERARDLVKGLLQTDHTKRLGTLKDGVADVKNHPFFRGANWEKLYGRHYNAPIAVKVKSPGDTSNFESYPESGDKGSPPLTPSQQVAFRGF
# T1 sequence (Q9GU80 entry or part of it): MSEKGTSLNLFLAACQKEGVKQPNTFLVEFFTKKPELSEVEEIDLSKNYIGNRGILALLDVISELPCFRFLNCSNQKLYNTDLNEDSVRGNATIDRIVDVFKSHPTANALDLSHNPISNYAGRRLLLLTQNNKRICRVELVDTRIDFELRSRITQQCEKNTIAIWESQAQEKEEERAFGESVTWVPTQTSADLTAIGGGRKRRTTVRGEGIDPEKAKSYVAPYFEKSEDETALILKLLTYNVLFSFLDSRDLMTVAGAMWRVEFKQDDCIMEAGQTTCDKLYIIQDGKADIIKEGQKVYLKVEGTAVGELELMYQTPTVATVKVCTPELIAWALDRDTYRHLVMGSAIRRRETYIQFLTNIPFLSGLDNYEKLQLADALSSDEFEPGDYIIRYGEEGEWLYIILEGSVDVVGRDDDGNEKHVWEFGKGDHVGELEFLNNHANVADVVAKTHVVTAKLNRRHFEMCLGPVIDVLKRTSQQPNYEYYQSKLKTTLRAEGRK
# T. brucei PKAR-PKAC1 holoenzyme, sequence (Q38DR5 entry or part of it): as the sequence (Q38DR5 entry or part of it, further chain) above
# T2 sequence (P10644 whole entry): as the sequence (P10644 whole entry) above
compound,measurement,setting,value
Nc1nc2c(ncn2[C@@H]2O[C@@H]3COP(=O)(O)O[C@H]3[C@H]2O)c(=O)[nH]1 [cGMP],cGMP concentration activating T. brucei PKA,T. brucei PKA [1],≥ 20 µM
same,concentration at which the holoenzyme is activated,[2],≥ 100 µM
same,"in vitro kinase assay [CPM], PKI","[2]; 0.1 mM + 5 µM PKI(5-24), Supp Fig 3b",1147.4 CPM
same,"in vitro kinase assay [CPM], average","[2]; 0.1 mM, Supp Fig 3b",13459.0 CPM
same,in vitro kinase assay [CPM],"[2]; 0.1 mM, Supp Fig 3b",15124.3 CPM and 11079.5 CPM and 14173.3 CPM
same,"in vitro kinase assay [CPM], PKI","[2]; 1 mM + 5 µM PKI(5-24), Supp Fig 3b",3732 CPM
same,"in vitro kinase assay [CPM], PKI","[2]; 1 mM + 5 µM PKI(5-24), Supp Fig 3c",1928.6 CPM
same,"in vitro kinase assay [CPM], average","[2]; 1 mM, Supp Fig 3b",48614.9 CPM
same,in vitro kinase assay [CPM],"[2]; 1 mM, Supp Fig 3b",51091.7 CPM and 52665 CPM and 42088 CPM
same,"in vitro kinase assay [CPM], average","[2]; 1 mM, Supp Fig 3c",18465.6 CPM
same,in vitro kinase assay [CPM],"[2]; 1 mM, Supp Fig 3c",15510 CPM and 18398 CPM and 21488.7 CPM
same,concentration at which the holoenzyme is activated,[3],≥ 100 µM
same,"in vitro kinase assay [CPM], PKI",[3]; 0.1 mM + 5 µM PKI(5-24),1137.33 CPM
same,"in vitro kinase assay [CPM], average",[3]; 0.1 mM,8446.6 CPM
same,in vitro kinase assay [CPM],[3]; 0.1 mM,9140 CPM and 8772.75 CPM and 7427.05 CPM
same,"in vitro kinase assay [CPM], PKI",[3]; 1 mM + 5 µM PKI(5-24),3682.78 CPM
same,"in vitro kinase assay [CPM], average",[3]; 1 mM,22856.7 CPM
same,in vitro kinase assay [CPM],[3]; 1 mM,17347.2 CPM and 27346.7 CPM and 23876.3 CPM
same,concentration at which the holoenzyme is activated,[4],≥ 100 µM
same,"in vitro kinase assay [CPM], PKI",[4]; 0.1 mM + 5 µM PKI(5-24),375.47 CPM
same,"in vitro kinase assay [CPM], average",[4]; 0.1 mM,2249 CPM
same,in vitro kinase assay [CPM],[4]; 0.1 mM,2477.88 CPM and 2206.3 CPM and 2062.83 CPM
same,"in vitro kinase assay [CPM], PKI",[4]; 1 mM + 5 µM PKI(5-24),760.33 CPM
same,"in vitro kinase assay [CPM], average",[4]; 1 mM,8405.46 CPM
same,in vitro kinase assay [CPM],[4]; 1 mM,9366.36 CPM and 9774.29 CPM and 6075.73 CPM
"N#Cc1cn([C@@H]2O[C@H](CO)[C@@H](O)[C@H]2O)c2ncnc(N)c12 [Toyo, 7-Cyano-7-deazaadenosine]",IC50,"[5]; Trypanosoma brucei, 72 h, read-out: IC50 growth pkar KO",690 ± 58 nM
same,EC50,"[5]; Trypanosoma brucei, read-out: EC50, Alamar blue cell viability assay, KO, individual replicate results",941 nM
same,EC50,"[5]; read-out: EC50, Alamar blue cell viability assay, KO, individual replicate results",768 nM and 560 nM and 610 nM and 492 nM and 666 nM and 791 nM
same,"binding to purified human PKARIα, in words",human PKARIα,did not bind
same,EC50,"T. brucei PKA [6]; VASP reporter, 15 min treatment, mean ± SD, read-out: EC50 in vivo PKA assay",88 nM and 87.6 nM
same,"induction of VASP phosphorylation in pkar knock out, in words",T. brucei PKA [6]; homozygous deletion of PKAR,did not induce phosphorylation of VASP
same,IC50,"T. brucei BSF cells (WT); Trypanosoma brucei, 72 h, read-out: IC50 growth WT",739 ± 59 nM
same,EC50,"T. brucei BSF cells (WT); Trypanosoma brucei, read-out: EC50, Alamar blue cell viability assay, WT, individual replicate results",866 nM
same,EC50,"T. brucei BSF cells (WT); read-out: EC50, Alamar blue cell viability assay, WT, individual replicate results",746 nM and 898 nM and 614 nM and 641 nM and 510 nM and 901 nM
same,In vitro kinase assay,[7]; 0.001 µM,0.11 U/ml and 0.14 U/ml
same,In vitro kinase assay,[7]; 0.01 µM,0.16 U/ml
same,In vitro kinase assay,[7]; 0.02 µM,0.18 U/ml and 0.15 U/ml
same,In vitro kinase assay,[7]; 0.04 µM,0.31 U/ml and 0.25 U/ml
same,In vitro kinase assay,[7]; 0.08 µM,0.3 U/ml and 0.33 U/ml
same,In vitro kinase assay,[7]; 0.16 µM,0.45 U/ml and 0.4 U/ml
same,In vitro kinase assay,[7]; 0.31 µM,0.58 U/ml and 0.64 U/ml
same,In vitro kinase assay,[7]; 0.63 µM,0.61 U/ml and 0.73 U/ml
same,In vitro kinase assay,[7]; 1.25 µM,0.71 U/ml and 0.74 U/ml
same,In vitro kinase assay,[7]; 2.5 µM,0.78 U/ml and 0.82 U/ml
same,In vitro kinase assay,[7]; 5 µM,0.82 U/ml and 0.75 U/ml and 4.49 U/ml and 4.39 U/ml
same,EC50,"[7]; kemptide phosphorylation, mean ± SD, read-out: EC50 in vitro PKA assay",234 ± 92 nM
same,MCA4 counts,"metacaspase 4 (MCA4); WT, 12 h",10.96
same,MCA4 normalized,"metacaspase 4 (MCA4); WT, 12 h",7.611
same,MCA4 fold change,"metacaspase 4 (MCA4); WT, 12 h",0.5155
same,MCA4 counts,"metacaspase 4 (MCA4); WT, 18 h",19.07
same,MCA4 normalized,"metacaspase 4 (MCA4); WT, 18 h",24.1392
same,MCA4 fold change,"metacaspase 4 (MCA4); WT, 18 h",1.635
same,MCA4 counts,"metacaspase 4 (MCA4); WT, 24 h",23.58
same,MCA4 normalized,"metacaspase 4 (MCA4); WT, 24 h",24.8211
same,MCA4 fold change,"metacaspase 4 (MCA4); WT, 24 h",1.681
same,"MCA4 abundance, in words","metacaspase 4 (MCA4); later time points, PKA-independent",elevated
same,MCA4 counts,"metacaspase 4 (MCA4); pkar KO, 12 h",13.45
same,MCA4 normalized,"metacaspase 4 (MCA4); pkar KO, 12 h",0.4781
same,MCA4 fold change,"metacaspase 4 (MCA4); pkar KO, 12 h",0.9855
same,MCA4 counts,"metacaspase 4 (MCA4); pkar KO, 18 h",12.35
same,MCA4 normalized,"metacaspase 4 (MCA4); pkar KO, 18 h",0.669
same,MCA4 fold change,"metacaspase 4 (MCA4); pkar KO, 18 h",1.379
same,MCA4 counts,"metacaspase 4 (MCA4); pkar KO, 24 h",14.17
same,MCA4 normalized,"metacaspase 4 (MCA4); pkar KO, 24 h",0.8557
same,MCA4 fold change,"metacaspase 4 (MCA4); pkar KO, 24 h",1.764
same,"MCA4 abundance, in words","metacaspase 4 (MCA4); wild type, 12 h post induction",decreased
same,Kd,"T. brucei PKAR(199–499); 298 K, mean ± SD, n=3, read-out: KD in vitro binding to PKAR (ITC)",57 ± 25 nM
same,−TΔS (entropic component of binding),"T. brucei PKAR(199–499); ITC, mean",-0.9 kcal/mol
same,Thermodynamics (ITC) -TΔS,T. brucei PKAR(199–499); independent replicates,-2.01 and -0.373 and -0.411
same,Thermodynamics (ITC) ΔG,T. brucei PKAR(199–499); independent replicates,-10.3 and -9.67 and -9.84
same,Thermodynamics (ITC) ΔH,T. brucei PKAR(199–499); independent replicates,-8.26 and -9.3 and -9.43
same,Molar ratio of binding (ITC),"T. brucei PKAR(199–499); ligand to protein, mean ± SD, n=3",2.1 ± 0.1
same,increase in global RXXS*/T* site phosphorylation,[8],3–4 fold
same,PKAC1/2 counts,"PKAC1/2; WT, 12 h",34.11
same,PKAC1/2 normalized,"PKAC1/2; WT, 12 h",23.6875
same,PKAC1/2 fold change,"PKAC1/2; WT, 12 h",0.1712
same,PKAC1/2 counts,"PKAC1/2; WT, 18 h",35.81
same,PKAC1/2 normalized,"PKAC1/2; WT, 18 h",45.3291
same,PKAC1/2 fold change,"PKAC1/2; WT, 18 h",0.3275
same,PKAC1/2 counts,"PKAC1/2; WT, 24 h",31.4
same,PKAC1/2 normalized,"PKAC1/2; WT, 24 h",33.0526
same,PKAC1/2 fold change,"PKAC1/2; WT, 24 h",0.2388
same,PKAC1/2 counts,"PKAC1/2; pkar KO, 12 h",38.16
same,PKAC1/2 normalized,"PKAC1/2; pkar KO, 12 h",1.357
same,PKAC1/2 fold change,"PKAC1/2; pkar KO, 12 h",0.08353
same,PKAC1/2 counts,"PKAC1/2; pkar KO, 18 h",35.91
same,PKAC1/2 normalized,"PKAC1/2; pkar KO, 18 h",1.945
same,PKAC1/2 fold change,"PKAC1/2; pkar KO, 18 h",0.1198
same,PKAC1/2 counts,"PKAC1/2; pkar KO, 24 h",34.95
same,PKAC1/2 normalized,"PKAC1/2; pkar KO, 24 h",2.111
same,PKAC1/2 fold change,"PKAC1/2; pkar KO, 24 h",0.13
same,In vitro kinase assay,[9]; 0.05 µM,0.0536 U/ml and 0.052 U/ml
same,In vitro kinase assay,[9]; 0.5 µM,0.0466 U/ml and 0.0501 U/ml
same,In vitro kinase assay,[9]; 5 µM,0.0571 U/ml and 0.0671 U/ml
same,In vitro kinase assay,[9]; 50 µM,0.067 U/ml and 0.0605 U/ml
same,"activation of mammalian PKARIα2–2PKACα holoenzyme, in words",[9]; up to 270-fold above EC50 for T. brucei PKA holoenzyme,did not activate
